Laboratory results: patent publication US20110178015A1, “METHODS OF TREATMENT USING BIASED LIGANDS FOR RECEPTORS SUCH AS THE PTH RECEPTOR” (priority 2007, published 2011)
“Also recorded” adds a separate entry of the source.

How the values were obtained:
[1] = test system: osteocalcin, RANKL and OPG gene expression; assay: Calvarial gene expression of bone regulatory proteins by quantitative RT-PCR; format: in vivo, mice
Method: FIG. 6 Distinct β-arrestin- and G protein-dependent Pathways Contribute to PTH Receptor-stimulated Gene Expression of Bone Regulatory Proteins. To determine the contributions of β-arrestin mediated signaling, to PTH receptor stimulated transcription of bone regulatory proteins, RNA was isolated from the calvaria of WT and β-arrestin 2−/− mice treated with vehicle, PTH(1-34) (PTH), or PTH-βarr. Gene expression was analyzed by quantitative RT-PCR. (a) Consistent with bone formation PTH and PTH-βarr increased osteocalcin expression in WT calvaria. […] (b) and (c). […] Data represent the mean±SEM from six independent experiments. (***, P<0.001; **, P<0.01; *, P<0.05; compared with vehicle treated WT mice; †††, P<0.001; †, P<0.05 compared with vehicle treated β-arrestin 2−/− mice).
To determine the contribution of β-arrestin mediated signaling to PTH1R-stimulated transcription of bone regulatory proteins, calvarial RNA was isolated from WT and β-arrestin 2−/− mice treated with PTH(1-34), PTH-βarr or vehicle. Gene expression for osteocalcin, as well as receptor activator of nuclear factor-KB ligand (RANKL) and osteoprotegrin (OPG), which activate and inhibit osteoclastic bone resorption respectively, was analyzed by quantitative RTPCR (FIG. 6 A-C).

[2] = test system: WT and β-arrestin 2−/− mice; assay: Quantitative microCT of the lumbar spine (trabecular bone); format: in vivo; details: for percent increase in Tb bone density: vs vehicle, 8 weeks
Source text: FIG. 4. β-arrestin 2 dependent signaling contributes to increases in trabecular bone but not cortical bone. Quantitative microCT of the lumbar spine was used to determine the effect vehicle, PTH (1-34) (PTH), or PTH-barr on (a) trabecular bone (Tb) density (BV/TV), (b) Tb thickness and (c) Tb number in WT and β-arrestin 2−/− mice after 8 wks of treatment. PTH and PTH-βarr increased tb density, tb thickness, and tb number in WT treated animals. The effects of PTH-βarr were absent in the β-arrestin −/− animals consistant with a b-arrestin mediated mechanism of anabolic bone formation. Data represent the mean±SEM of at least 7 independent mouse measurements. (***, P<0.001; **, P<0.01; *, P<0.05 compared with vehicle treated WT mice; if, P<0.01; t, P<0.05 compared with vehicle treated β-arrestin 2−/− mice).
Quantitative microCT (qCT) measurements of the lumbar spine were acquired from WT and β-arrestin 2−/− mice after 8 weeks of treatment with vehicle, PTH(1-34), or PTH-βarr. There was no significant difference in the overall trabecular bone density (BV/TV) between vehicle treated WT and β-arrestin 2−/− mice (FIG. 3A). […] These differences in trabecular bone architecture in sham treated animals reflect two potential contributing processes 1) the loss of β-arrestin mediated signaling and 2) the exaggeration of Gs signaling due to the loss of β-arrestin desensitization.

[3] = test system: WT and β-arrestin 2−/− mice; assay: Quantitative histomorphometry of lumbar spine sections; format: in vivo; details: for osteoblast surface vs vehicle / osteoclast surface (osteoclast recruitment) / osteoid surface vs vehicle: WT mice, 8 wks, lumbar spine sections
Source text: Dynamic histomorphometric data were consistent with the qCT of trabecular bone morphology. […] As expected there was an increase in osteoclast surface in the PTH (1-34) treated animals.

[4] = test system: WT and β-arrestin 2−/− mice; assay: Serum osteocalcin, marker of bone formation; format: in vivo; details: 4 weeks of treatment
Method: FIG. 5. PTH-βarr increases serum osteocalcin and has no effect on urine Deoxypyridinoline (DPD) excretion. (a) Serum osteocalcin, a biochemical marker of bone formation was measured in WT and β-arrestin 2−/− mice after 4 weeks of treatment with vehicle, PTH (1-34) (PTH) or PTH-βarr. […] There was no increase in serum osteocalcin in the arrestin 2−/− mice treated with PTH-βarr compared to placebo. […] (b) 24 hour urine DPD, a marker of bone degradation and bone resorption, was also measured in WT and β-arrestin 2−/− mice after 4 weeks of treatment with vehicle, PTH or PTH-βarr. […] Data represent the mean±SEM of at least 7 independent mouse measurements. (***, P<0.001; *, P<0.05; compared with vehicle treated WT mice; †††, P<0.001; ††, P<0.01 compared with vehicle treated β-arrestin 2−/− mice).
To delineate the cellular mechanisms contributing to the metabolic effects of PTH(1-34) and PTH-βarr administration in WT and β-arrestin 2−/− mice, serum and urine markers of bone turnover were assessed.

ERK1/2 = ERK1/2 MAP kinase activation (phosphorylation) in primary osteoblasts; format: cell-based, mice; details: 5 min, 100 nM PTH(1-34) or 1 μM PTH-βarr; for ERK1/2 activation: β-arrestin 2−/− POB; for ERK1/2 phosphorylation: WT POB
Method: FIG. 2 PTH-βarr stimulates β-arrestin mediated ERK1/2 activation. PTH-βarr stimulated ERK1/2 activation, was assessed in POBs isolated from β-arrestin 2−/− and WT C57BL/6 mice. POBs were treated with 100 nM PTH(1-34) (PTH) or 1 μM PTH-βarr for 5 min. […] The effect of PTH-barr stimulation on ERK1/2 activation in the WT obs was absent in the β-arrestin 2−/− obs. Values presented are the fold ERK1/2 phosphorylation over non-stimulated controls. Data represent the mean±SEM from four independent experiments. (**, P<0.01 compared with the non-stimulated WT POBs; ††, P<0.01 compared with the non-stimulated β-arrestin 2−/− POBs).
PTH(1-34) and PTH-βarr stimulated ERK1/2 MAP kinase activation was assessed in WT and β-arrestin 2−/− POB after treatment for 5 min with 100 nM PTH(1-34) or 1 μM PTH-βarr (FIG. 1b).

[5] = test system: WT and β-arrestin 2−/− mice; assay: qCT of the midfemoral shaft (cortical bone); format: in vivo; details: for femoral periosteal circumference / midshaft cortical thickness: WT mice; for femoral periosteal circumference / midshaft cortical thickness / cortical thickness / periosteal circumference: 8 wks; for endosteal bone surfaces: WT or β-arrestin−/− mice, data not shown; for cortical thickness / periosteal circumference: β-arrestin 2−/− mice
Source text: Finally, the effects of PTH(1-34) and PTH-βarr on cortical bone were examined by qCT of the midfemoral shaft (FIGS. 3D and E). […] However the β-arrestin 2−/− mice had greater midshaft cortical thickness than vehicle treated WT mice. […] The biased agonist, PTH-βarr had no effect on these cortical indices in WT mice.

[6] = WT mice, 8 weeks of daily treatment
[7] = β-arrestin 2−/− mice, 8 weeks of daily treatment
[8] = WT mice, 8 weeks of daily treatment, listed as PTH

(D-Trp12, Tyr34)-PTH(7-34) [PTH-βarr]
OPG mRNA expression vs vehicle ([1]; WT mice, calvaria): did not affect
RANKL mRNA expression vs vehicle ([1]; WT mice, calvaria): did not affect
osteocalcin mRNA expression vs vehicle ([1]; WT mice, calvaria): increases
OPG mRNA expression vs vehicle ([1]; WT mice; calvaria; Tyr34)-PTH(7-34)): significantly increases
OPG mRNA expression vs vehicle ([1]; β-arrestin 2−/− mice, calvaria): Neither PTH nor PTH-βarr treatment had a significant effect
RANKL mRNA expression vs vehicle ([1]; β-arrestin 2−/− mice, calvaria): Neither PTH nor PTH-βarr treatment had a significant effect
osteocalcin mRNA expression vs vehicle ([1]; β-arrestin 2−/− mice, calvaria): decrease
lumbar spine trabecular bone density (BV/TV) vs vehicle [2, 6]: increased; also recorded: significant increase
trabecular number vs vehicle [2, 6]: increased; also recorded: significant increases
trabecular thickness vs vehicle [2, 6]: increased; also recorded: significant increases
trabecular number vs vehicle [2, 7]: absent
osteoblast surface vs vehicle [3]: increased
osteoclast surface (osteoclast recruitment) [3]: no effect
osteoid surface vs vehicle [3]: increased
serum osteocalcin vs vehicle ([4]; WT mice): significantly increased
serum osteocalcin vs vehicle ([4]; β-arrestin 2−/− mice): no increase; also recorded: no significant change
ERK1/2 activation (ERK1/2): failed to activate ERK1/2
ERK1/2 activation (ERK1/2; listed as PTH-barr): absent
femoral periosteal circumference [5]: no effect
midshaft cortical thickness [5]: no effect
endosteal bone surfaces [5]: no significant effects
cortical thickness [5]: significantly decreased
periosteal circumference [5]: significantly decreased

PTH(1-34) [reference compound]
OPG mRNA expression vs vehicle ([1]; WT mice, calvaria): increases
RANKL mRNA expression vs vehicle ([1]; WT mice, calvaria): increases
osteocalcin mRNA expression vs vehicle ([1]; WT mice, calvaria): increases
osteocalcin mRNA expression vs vehicle ([1]; WT mice, calvaria, listed as PTH): increased
OPG mRNA expression vs vehicle ([1]; β-arrestin 2−/− mice, calvaria): Neither PTH nor PTH-βarr treatment had a significant effect
RANKL mRNA expression vs vehicle ([1]; β-arrestin 2−/− mice, calvaria): Neither PTH nor PTH-βarr treatment had a significant effect
osteocalcin mRNA expression vs vehicle ([1]; β-arrestin 2−/− mice, calvaria, listed as PTH): significant increase; also recorded: significantly increased
lumbar spine trabecular bone density (BV/TV) vs vehicle [2, 6]: significantly increased
trabecular number vs vehicle [2, 6]: significant increases
trabecular thickness vs vehicle [2, 6]: significant increases
lumbar spine trabecular bone density (BV/TV) vs vehicle [2, 8]: increased
trabecular number vs vehicle [2, 8]: increased
trabecular thickness vs vehicle [2, 8]: increased
percent increase in Tb bone density ([2]; WT mice): 38%
trabecular bone density (BV/TV) vs vehicle [2, 7]: net increase
trabecular thickness vs vehicle [2, 7]: significant increases
percent increase in Tb bone density ([2]; β-arrestin 2−/− mice): 17%
osteoblast surface vs vehicle [3]: increased
osteoclast surface (osteoclast recruitment) [3]: increase
osteoid surface vs vehicle [3]: increased
osteoclast formation ([3]; in the absence of β-arrestin 2): accelerates
serum osteocalcin vs vehicle ([4]; WT mice): significantly increased
serum osteocalcin vs vehicle ([4]; WT mice, listed as PTH): significantly increase
serum osteocalcin vs vehicle ([4]; β-arrestin 2−/− mice): increased
ERK1/2 phosphorylation (ERK1/2): approximately 3 fold over basal
ERK1/2 phosphorylation (ERK1/2; listed as PTH): robustly activated
ERK1/2 activation (ERK1/2): responded to PTH(1-34) much as WT POB
femoral periosteal circumference [5]: increased
midshaft cortical thickness [5]: increased
endosteal bone surfaces [5]: no significant effects
cortical thickness [5]: no significant effect
periosteal circumference [5]: no significant effect
